Tested on: isolated colon section
Conditions: rabbit, in vivo
Procedure: Each rabbit was anesthetized using an intramuscular injection of xylazine and ketamine, given at 5-8 mg/kg and 35-40 mg/kg, respectively. The abdomen and the cervical area was then shaved. A surgical cutdown was performed to place a catheter into the jugular vein for maintaining anesthesia throughout the entire exposure period. The maintenance anesthesia was sodium pentobarbitol given at 13 mg/kg as needed. An endotracheal tube was then inserted to facilitate normal respiration.
In the anesthetized animal model a section of the colon, immediately proximal to the cecum, was isolated with the mesenteric vascular system intact. Two ligatures were placed approximately 15-20 cm apart around the colon section. The isolated section was then freed from the remaining intestine by cutting between the ligatures, taking care to leave the vascular and nervous systems intact. A longitudinal incision was made along the entire length of the isolated colon section and the fecal material removed. The isolated colon section is then placed onto a three-cell test chamber which forms the floor of the test cell. The test cell is continuously perfused with Lactated Ringer's solution at a rate of 2.2 ml per minute using a Model 975 Harvard pump. The test chamber is allowed to equilibrate for one hour to maintain a constant temperature of 37° C. (±2° C.). […]
A quantity of the test material was chosen such that the total milligram amount of aspirin delivered over the 6-hour exposure period was equal to the total dose of aspirin provided by the positive control.
After 6 hours of continuous exposure, each rabbit was euthanized using an intravenous injection of sodium pentobarbitol given at approximately 100 mg/kg. The isolated section of exposed colon was removed from the intestine and evaluated for macroscopic evidence of irritation for both degree (0-4) and area (0-6.40 cm^2). […]

## CC(=O)Oc1ccccc1C(=O)O [Aspirin, aspirin]
  Mean Irritation Area: 4.48 cm^2
  Mean Irritation Index: 17.93
  Mean Irritation Source: 4.00

Reference: patent US5582837A, “Alkyl-substituted cellulose-based sustained-release oral drug dosage forms” (priority 1995, dated 1996)
